One data set has as its system K562 cells. The data set can be described thus: Cell growth inhibitory effect, K562 cells (WST-8, 72 hours). The note with it: for IC50: Homo sapiens, K562, 72 h, read-out: K562 cells (IC50 value: μM); for Ratio (U937 cells/K562 cells): ratio of IC50 values U937 cells/K562 cells. In general terms: Tetrazolium assays rely on reduction of a dye to a coloured formazan, in cell work by metabolically active cells.

In the next data set the test system is U937 cells. The data set can be described thus: Cell growth inhibitory effect, U937 cells (WST-8, 72 hours). Particulars: Homo sapiens, U-937, 72 h, read-out: U937 cells (IC50 value: μM).
A further data set deals with T1, E255K mutant BCR-ABL (Homo sapiens, UniProt P00519, E255K).
T1 construct: expressed in transfected cells; host or cells: 293T cells (ATCC), Lipofectamine transfection; the other entry of the earlier key: BCR (P11274, Breakpoint cluster region protein)
Kind of data set: Self-phosphorylation inhibitory effect on mutant (E255K) BCR-ABL in transfected 293T cells (Western blot, PY99). Format: cell-based. The note with it: 2 hours. As to the method: The cells were seeded in an amount of 5 ml in a Poly-L-Lysin coated 6 cm dish so as to give 1.2×10^6 cells/well. […] Using a Lipofectamine reagent (manufactured by Invitrogen), 2 μg of E255K mutant bcr-abl gene expression vector was transfected into the cell. […] The dish was incubated in a CO2 incubator for 2 hours. After treatment with trypsin, the cells were collected into a 15 ml centrifuge tube. The tube was centrifuged at 1000 rpm at room temperature for one minute. After removal of the medium, 50 μl of a cell lysis solution was added. The cells were subjected to cytolysis with a mixer. The tube was left to stand at 4° C. for 15 minutes and transferred to 1.5 ml tube. The tube was centrifuged at 12,000 rpm at 4° C. for 15 minutes. The cell lysate was collected into another 1.5 ml tube. The concentration of protein was measured according to BCA method. The samples of cell lysate containing […] of protein was analyzed by SDS-PAGE polyacrylamide. After electrophoresis, the protein was transferred onto a nylon filter (Hybond-P) with wet method at 4° C. overnight. The nylon filter was reacted in 10 ml of PBS/0.1% Tween-20 containing 0.2 μg/ml anti-phosphorylation tyrosin kinase antibody (PY99) (manufactured by Toyobo) at room temperature for one hour. The nylon filter was washed with PBS three times and then reacted 10 ml of PBS/0.1% Tween-20 containing 0.4 μg/ml Anti-mouse IgG AP-conjugated (manufactured by Cell Signaling) at room temperature for one hour. After the nylon filter was washed with PBS four times, self-phosphorylation of p210 BCR-ABL was detected with alkaline phosphatase color developing reagent.
The results are shown as follows: +++: almost perfectly inhibition of phosphorylation; ++: around half of inhibition; +: week inhibition; and −: no inhibition.
Background: Immunoblotting shows a protein as a band on a membrane.

SMILES strings stand for the structures.

T1 sequence (P00519 28-1130 E255K limits assumed): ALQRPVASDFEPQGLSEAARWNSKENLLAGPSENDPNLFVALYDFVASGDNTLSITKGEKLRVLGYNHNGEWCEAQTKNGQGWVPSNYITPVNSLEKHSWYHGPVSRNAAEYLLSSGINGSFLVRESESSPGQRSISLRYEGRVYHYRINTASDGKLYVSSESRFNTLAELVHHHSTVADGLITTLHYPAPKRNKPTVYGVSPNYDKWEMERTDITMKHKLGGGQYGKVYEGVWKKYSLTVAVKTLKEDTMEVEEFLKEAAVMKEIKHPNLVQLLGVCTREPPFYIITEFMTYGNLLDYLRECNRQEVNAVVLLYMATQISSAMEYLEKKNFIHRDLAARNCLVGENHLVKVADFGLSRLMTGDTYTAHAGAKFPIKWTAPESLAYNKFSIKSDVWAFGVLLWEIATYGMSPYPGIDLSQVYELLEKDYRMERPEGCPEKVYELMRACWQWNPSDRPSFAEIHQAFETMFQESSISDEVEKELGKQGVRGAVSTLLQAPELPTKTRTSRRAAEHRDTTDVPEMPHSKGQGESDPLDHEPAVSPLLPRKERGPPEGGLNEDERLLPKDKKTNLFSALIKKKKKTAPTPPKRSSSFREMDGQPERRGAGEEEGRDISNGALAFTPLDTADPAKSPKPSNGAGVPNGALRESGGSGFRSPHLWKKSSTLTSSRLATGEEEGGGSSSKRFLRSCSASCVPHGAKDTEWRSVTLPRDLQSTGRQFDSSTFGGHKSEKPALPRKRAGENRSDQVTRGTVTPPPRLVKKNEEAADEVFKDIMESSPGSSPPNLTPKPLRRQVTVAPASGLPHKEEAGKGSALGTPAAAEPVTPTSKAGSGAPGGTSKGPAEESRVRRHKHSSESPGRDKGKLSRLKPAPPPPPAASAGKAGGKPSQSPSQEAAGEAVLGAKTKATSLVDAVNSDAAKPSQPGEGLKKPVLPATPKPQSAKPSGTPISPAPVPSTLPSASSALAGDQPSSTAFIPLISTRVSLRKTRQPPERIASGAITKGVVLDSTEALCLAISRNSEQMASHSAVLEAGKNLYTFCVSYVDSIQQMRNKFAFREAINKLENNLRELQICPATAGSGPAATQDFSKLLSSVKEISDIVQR

On to `Cc1ccc(NC(=O)c2ccc(CN3CCN(C)CC3)c(Cl)c2)cc1Nc1nccc(-c2cccnc2)n1` [Example 3, 3-chloro-4-(4-methylpiperazin-1-ylmethyl)-N-{4-methyl-3-[4-(3-pyridyl)pyrimidin-2-ylamino]phenyl}benzamide], for which the melting point – broadly, the temperature, or range, at which the solid turns liquid – is 193 to 194 °C (dec.). For the same molecule, in the data set on K562 cells, the IC50 – broadly, the concentration needed to halve the response being measured – was 0.0046 µM and the “Ratio (U937 cells/K562 cells)” value was found to be 1089.1. For the same molecule, the 50% inhibitory concentration (IC50) with U937 cells is 5.01 µM. Also, the “Self-phosphorylation inhibitory effect on E255K mutant BCR-ABL” value (“Self-phosphorylation inhibitory effect” for short) on E255K mutant BCR-ABL (1 μM) was “−”. Also, at E255K mutant BCR-ABL (3 μM), the “Self-phosphorylation inhibitory effect” value was “+”. Moreover, the “Self-phosphorylation inhibitory effect” value on E255K mutant BCR-ABL (10 μM) is listed as “+++”.

On to `Cc1ccc(NC(=O)c2ccc(CN3CCN(C)CC3)c(C(F)(F)F)c2)cc1Nc1nccc(-c2cncc(Br)c2)n1` [Example 10, 4-(4-methylpiperazin-1-ylmethyl)-3-trifluoromethyl-N-{3-[4-(5-bromopyridin-3-yl)pyrimidin-2-ylamino]-4-methylphenyl}benzamide], for which the melting point was 171 to 173 °C (dec.). In the data set on K562 cells, the half-inhibitory concentration (IC50) came to 0.0014 µM and the “Ratio (U937 cells/K562 cells)” value was 2335.7. In addition, the IC50 with U937 cells stood at 3.27 µM. Besides, the “Self-phosphorylation inhibitory effect” value on E255K mutant BCR-ABL (0.1 μM) was “−”. On E255K mutant BCR-ABL (0.3 μM), the “Self-phosphorylation inhibitory effect” value is reported as “−”. Moreover, on E255K mutant BCR-ABL (1 μM), the “Self-phosphorylation inhibitory effect” value is listed as “++”. The “Self-phosphorylation inhibitory effect” value at E255K mutant BCR-ABL (3 μM) was “+++”. Also, at E255K mutant BCR-ABL (10 μM), the “Self-phosphorylation inhibitory effect” value is listed as “+++”.

As for `Cc1ccc(NC(=O)c2ccc(CN3CCN(C)CC3)c(Br)c2)cc1Nc1nccc(-c2cnccn2)n1` [Example 7, 3-bromo-4-(4-methylpiperazin-1-ylmethyl)-N-{4-methyl-3-[4-(2-pyrazinyl)pyrimidin-2-ylamino]phenyl}benzamide], the melting point is 213 to 214 °C (dec.). Moreover, in the data set on K562 cells, the IC50 was 0.0054 µM and the “Ratio (U937 cells/K562 cells)” value is given as 1205.6. Moreover, the IC50 with U937 cells is 6.51 µM. In addition, the “Self-phosphorylation inhibitory effect” value at E255K mutant BCR-ABL (1 μM) is given as “−”. The “Self-phosphorylation inhibitory effect” value at E255K mutant BCR-ABL (3 μM) is on record as “++”. For the same molecule, the “Self-phosphorylation inhibitory effect” value at E255K mutant BCR-ABL (10 μM) was “+++”.

As to `Cc1ccc(NC(=O)c2ccc(CN3CCN(C)CC3)c(I)c2)cc1Nc1nccc(-c2cccnc2)n1` [Example 2, 3-iodo-4-(4-methylpiperazin-1-ylmethyl)-N-{4-methyl-3-[4-(3-pyridyl)pyrimidin-2-ylamino]phenyl}benzamide], the melting point was 199 to 200 °C (dec.). For the same molecule, in the data set on K562 cells, the IC50 is 0.0023 µM and the “Ratio (U937 cells/K562 cells)” value is given as 1452.2. Further, the IC50 in the data set on U937 cells was 3.34 µM. At E255K mutant BCR-ABL (1 μM), the “Self-phosphorylation inhibitory effect” value is “+”. Besides, the “Self-phosphorylation inhibitory effect” value on E255K mutant BCR-ABL (3 μM) is “++”. Further, the “Self-phosphorylation inhibitory effect” value at E255K mutant BCR-ABL (10 μM) was “+++”.

`Cc1ccc(NC(=O)c2ccc(CN3CCN(C)CC3)c(Br)c2)cc1Nc1nccc(-c2cncc(Br)c2)n1` [Example 9, 3-bromo-4-(4-methylpiperazin-1-ylmethyl)-N-{3-[4-(5-bromopyridin-3-yl)pyrimidin-2-ylamino]-4-methylphenyl}benzamide]: the melting point was 194 to 195 °C (dec.). Moreover, in the data set on K562 cells, the IC50 is 0.0017 µM and the “Ratio (U937 cells/K562 cells)” value is 1094.1. Further, the IC50 in the data set with U937 cells was found to be 1.86 µM. Moreover, the “Self-phosphorylation inhibitory effect” value at E255K mutant BCR-ABL (1 μM) was “+”. At E255K mutant BCR-ABL (3 μM), the “Self-phosphorylation inhibitory effect” value is recorded as “++”. Further, the “Self-phosphorylation inhibitory effect” value at E255K mutant BCR-ABL (10 μM) was “+++”.

On to `Cc1ccc(NC(=O)c2ccc(CN3CCN(C)CC3)c(Br)c2)cc1Nc1nccc(-c2cncnc2)n1` [Example 13, 3-bromo-4-(4-methylpiperazin-1-ylmethyl)-N-{4-methyl-3-[4-(5-pyrimidinyl)pyrimidin-2-ylamino]phenyl}benzamide], for which the melting point is 238 to 240 °C (dec.). Further, in the data set on K562 cells, the IC50 came out at 0.0012 µM and the “Ratio (U937 cells/K562 cells)” value amounted to 5166.7. Moreover, the concentration for half-maximal inhibition (IC50) in the data set with U937 cells was determined as 6.2 µM. Moreover, the “Self-phosphorylation inhibitory effect” value at E255K mutant BCR-ABL (0.1 μM) is reported as “−”. Further, the “Self-phosphorylation inhibitory effect” value on E255K mutant BCR-ABL (0.3 μM) was “+”. Besides, the “Self-phosphorylation inhibitory effect” value on E255K mutant BCR-ABL (1 μM) is reported as “++”. For the same molecule, on E255K mutant BCR-ABL (3 μM), the “Self-phosphorylation inhibitory effect” value is reported as “+++”. Besides, the “Self-phosphorylation inhibitory effect” value at E255K mutant BCR-ABL (10 μM) was “+++”.

Source of the values: patent US7494997B2, “Amide derivative” (Nippon Shinyaku Co., Ltd., priority 2002, dated 2009).
